Assay results: ChEMBL document CHEMBL3885861, “Open TG-GATES”

Species on record: Rattus norvegicus
Test: Open TG-GATES - Regimen: Daily Repeat
Format: toxicity, organism-based, Sprague-Dawley
Set-up: regimen Daily Repeat, gender Male, age 6 weeks
Details: in vivo, po, 50 mg/kg, route gavage, dose level Middle; for APTT / Bas / Eos / Fbg / Hb / Ht / Lym / MCH / MCHC / MCV / Mono / Neu / PT / Plat / RBC / Ret / WBC: tissue Blood; for KIDNEY_L / KIDNEY_R / KIDNEY_TOTAL: tissue Kidney; for LIVER: tissue Liver; for A/G / ALP / ALT / AST / BUN / CRE / Ca / Cl / DBIL / GLC / IP / K / LDH / Na / PL / RALB / TBIL / TC / TG / TP / gamma-GTP: tissue Plasma

With `Nc1nc(N)c2nc(-c3ccccc3)c(N)nc2n1` the TERMINAL_BW (72 h, time 3 day) was 241.1 g, the APTT (72 h, time 3 day) was 15.9 s and the Bas (72 h, time 3 day) was 0%. For the same compound, the Eos (72 h, time 3 day) was 1%, the Fbg (72 h, time 3 day) was 334.2 mg/dL and the Hb (72 h, time 3 day) was 13.9 g/dL. It also gave a Ht (72 h, time 3 day) of 40.9%, a Lym (72 h, time 3 day) of 74.4% and an MCH (72 h, time 3 day) of 21.2 pg. It also gave an MCHC (72 h, time 3 day) of 34.2%, an MCV (72 h, time 3 day) of 62.1 fL and a Mono (72 h, time 3 day) of 2.8%. The Neu (72 h, time 3 day) was 21.4%, the PT (72 h, time 3 day) was 13.8 s and the Plat (72 h, time 3 day) was 119.3 x10_4/uL. It also gave an RBC (72 h, time 3 day) of 658 x10_4/ul, a Ret (72 h, time 3 day) of 5.6% and a WBC (72 h, time 3 day) of 93.5 x10_2/uL. For the same compound, the KIDNEY_L (72 h, time 3 day) was 1.1 g, the KIDNEY_R (72 h, time 3 day) was 1.1 g and the KIDNEY_TOTAL (72 h, time 3 day) was 2.2 g. It also gave an LIVER (72 h, time 3 day) of 11.5 g, an A/G (72 h, time 3 day) of 0.9 and an ALP (72 h, time 3 day) of 1521.8 IU/L. The ALT (72 h, time 3 day) was 42.2 IU/L, the AST (72 h, time 3 day) was 65.2 IU/L and the BUN (72 h, time 3 day) was 15.2 mg/dL. For the same compound, the CRE (72 h, time 3 day) was 0.2 mg/dL, the Ca (72 h, time 3 day) was 10.9 mg/dL and the Cl (72 h, time 3 day) was 105.4 meq/L. For the same compound, the DBIL (72 h, time 3 day) was 0.008 mg/dL, the GLC (72 h, time 3 day) was 175 mg/dL and the IP (72 h, time 3 day) was 8.2 mg/dL. It also gave a K (72 h, time 3 day) of 3.9 meq/L, an LDH (72 h, time 3 day) of 56.2 IU/L and a Na (72 h, time 3 day) of 143.6 meq/L. The PL (72 h, time 3 day) was 166.2 mg/dL, the RALB (72 h, time 3 day) was 2.6 g/dL and the TBIL (72 h, time 3 day) was 0.04 mg/dL. It also gave a TC (72 h, time 3 day) of 85 mg/dL, a TG (72 h, time 3 day) of 126.2 mg/dL and a TP (72 h, time 3 day) of 5.5 g/dL. The gamma-GTP (72 h, time 3 day) was 1 IU/L, the TERMINAL_BW ([…], time 7 day) was 280.2 g and the TERMINAL_BW ([…], time 14 day) was 333.9 g. For the same compound, the TERMINAL_BW ([…], time 28 day) was 402.9 g, the APTT ([…], time 7 day) was 16.3 s and the Bas ([…], time 7 day) was 0%. It also gave an Eos ([…], time 7 day) of 1%, a Fbg ([…], time 7 day) of 335.4 mg/dL and a Hb ([…], time 7 day) of 13.8 g/dL. The Ht ([…], time 7 day) was 42.3%, the Lym ([…], time 7 day) was 77.8% and the MCH ([…], time 7 day) was 20.2 pg. For the same compound, the MCHC ([…], time 7 day) was 32.6%, the MCV ([…], time 7 day) was 62.1 fL and the Mono ([…], time 7 day) was 2%. For the same compound, the Neu ([…], time 7 day) was 18.6%, the PT ([…], time 7 day) was 13.9 s and the Plat ([…], time 7 day) was 134.1 x10_4/uL. For the same compound, the RBC ([…], time 7 day) was 680.6 x10_4/ul, the Ret ([…], time 7 day) was 5.3% and the WBC ([…], time 7 day) was 121.8 x10_2/uL. The APTT ([…], time 14 day) was 18.2 s, the Bas ([…], time 14 day) was 0.2% and the Eos ([…], time 14 day) was 1%. For the same compound, the Fbg ([…], time 14 day) was 312.2 mg/dL, the Hb ([…], time 14 day) was 14.5 g/dL and the Ht ([…], time 14 day) was 44.6%. It also gave a Lym ([…], time 14 day) of 80.6%, an MCH ([…], time 14 day) of 19.6 pg and an MCHC ([…], time 14 day) of 32.6%. For the same compound, the MCV ([…], time 14 day) was 59.9 fL, the Mono ([…], time 14 day) was 2.6% and the Neu ([…], time 14 day) was 15.4%. It also gave a PT ([…], time 14 day) of 12.9 s, a Plat ([…], time 14 day) of 127.2 x10_4/uL and an RBC ([…], time 14 day) of 744.2 x10_4/ul. It also gave a Ret ([…], time 14 day) of 4.2%, a WBC ([…], time 14 day) of 93 x10_2/uL and an APTT ([…], time 28 day) of 18.2 s. For the same compound, the Bas ([…], time 28 day) was 0.4%, the Eos ([…], time 28 day) was 1.4% and the Fbg ([…], time 28 day) was 283.2 mg/dL. For the same compound, the Hb ([…], time 28 day) was 15.4 g/dL, the Ht ([…], time 28 day) was 45.4% and the Lym ([…], time 28 day) was 80%. The MCH ([…], time 28 day) was 19.1 pg, the MCHC ([…], time 28 day) was 33.9% and the MCV ([…], time 28 day) was 56.2 fL. The Mono ([…], time 28 day) was 1.6%, the Neu ([…], time 28 day) was 16.2% and the PT ([…], time 28 day) was 13.5 s. The Plat ([…], time 28 day) was 105.5 x10_4/uL, the RBC ([…], time 28 day) was 807 x10_4/ul and the Ret ([…], time 28 day) was 2.4%. For the same compound, the WBC ([…], time 28 day) was 101.1 x10_2/uL, the KIDNEY_L ([…], time 7 day) was 1.2 g and the KIDNEY_R ([…], time 7 day) was 1.2 g. The KIDNEY_TOTAL ([…], time 7 day) was 2.4 g, the KIDNEY_L ([…], time 14 day) was 1.3 g and the KIDNEY_R ([…], time 14 day) was 1.3 g. For the same compound, the KIDNEY_TOTAL ([…], time 14 day) was 2.6 g, the KIDNEY_L ([…], time 28 day) was 1.4 g and the KIDNEY_R ([…], time 28 day) was 1.4 g. The KIDNEY_TOTAL ([…], time 28 day) was 2.8 g, the LIVER ([…], time 7 day) was 12.7 g and the LIVER ([…], time 14 day) was 14.7 g. It also gave an LIVER ([…], time 28 day) of 15.8 g, an A/G ([…], time 7 day) of 0.9 and an ALP ([…], time 7 day) of 1449.6 IU/L. For the same compound, the ALT ([…], time 7 day) was 46.8 IU/L, the AST ([…], time 7 day) was 66.6 IU/L and the BUN ([…], time 7 day) was 17.6 mg/dL. It also gave a CRE ([…], time 7 day) of 0.2 mg/dL, a Ca ([…], time 7 day) of 11 mg/dL and a Cl ([…], time 7 day) of 106 meq/L. It also gave a DBIL ([…], time 7 day) of 0.012 mg/dL, a GLC ([…], time 7 day) of 179 mg/dL and an IP ([…], time 7 day) of 7.7 mg/dL. For the same compound, the K ([…], time 7 day) was 4.3 meq/L, the LDH ([…], time 7 day) was 60 IU/L and the Na ([…], time 7 day) was 142.4 meq/L. The PL ([…], time 7 day) was 154.6 mg/dL, the RALB ([…], time 7 day) was 2.6 g/dL and the TBIL ([…], time 7 day) was 0.07 mg/dL. For the same compound, the TC ([…], time 7 day) was 77.2 mg/dL, the TG ([…], time 7 day) was 128.2 mg/dL and the TP ([…], time 7 day) was 5.5 g/dL. It also gave a gamma-GTP ([…], time 7 day) of 1.2 IU/L, an A/G ([…], time 14 day) of 0.9 and an ALP ([…], time 14 day) of 1311.6 IU/L. For the same compound, the ALT ([…], time 14 day) was 43.2 IU/L, the AST ([…], time 14 day) was 64.2 IU/L and the BUN ([…], time 14 day) was 18 mg/dL. It also gave a CRE ([…], time 14 day) of 0.2 mg/dL, a Ca ([…], time 14 day) of 10.6 mg/dL and a Cl ([…], time 14 day) of 104.8 meq/L. For the same compound, the DBIL ([…], time 14 day) was 0.014 mg/dL, the GLC ([…], time 14 day) was 191.8 mg/dL and the IP ([…], time 14 day) was 8.1 mg/dL. For the same compound, the K ([…], time 14 day) was 3.7 meq/L, the LDH ([…], time 14 day) was 69.6 IU/L and the Na ([…], time 14 day) was 144.4 meq/L. For the same compound, the PL ([…], time 14 day) was 149.2 mg/dL, the RALB ([…], time 14 day) was 2.7 g/dL and the TBIL ([…], time 14 day) was 0.07 mg/dL. The TC ([…], time 14 day) was 70.2 mg/dL, the TG ([…], time 14 day) was 137 mg/dL and the TP ([…], time 14 day) was 5.9 g/dL. For the same compound, the gamma-GTP ([…], time 14 day) was 1 IU/L, the A/G ([…], time 28 day) was 0.8 and the ALP ([…], time 28 day) was 1251 IU/L. The ALT ([…], time 28 day) was 39.2 IU/L, the AST ([…], time 28 day) was 62.4 IU/L and the BUN ([…], time 28 day) was 17.6 mg/dL. It also gave a CRE ([…], time 28 day) of 0.2 mg/dL, a Ca ([…], time 28 day) of 10.7 mg/dL and a Cl ([…], time 28 day) of 104.2 meq/L. The DBIL ([…], time 28 day) was 0.014 mg/dL, the GLC ([…], time 28 day) was 188.2 mg/dL and the IP ([…], time 28 day) was 6.7 mg/dL. The K ([…], time 28 day) was 3.8 meq/L, the LDH ([…], time 28 day) was 52.6 IU/L and the Na ([…], time 28 day) was 143.6 meq/L. It also gave a PL ([…], time 28 day) of 139.2 mg/dL, an RALB ([…], time 28 day) of 2.7 g/dL and a TBIL ([…], time 28 day) of 0.06 mg/dL. It also gave a TC ([…], time 28 day) of 64.6 mg/dL, a TG ([…], time 28 day) of 154 mg/dL and a TP ([…], time 28 day) of 6.1 g/dL. For the same compound, the gamma-GTP ([…], time 28 day) was 1 IU/L.
